Experimental findings from patent publication US20140163226A1, “NOVEL PYRIMIDINE DERIVATIVE AND PHARMACEUTICAL COMPOSITION INCLUDING SAME AS AN ACTIVE INGREDIENT” (HANMI PHARMACEUTICAL CO., LTD., priority 2011, published 2014) are described below.

The experiment deals with T1, DGAT1 (Homo sapiens, UniProt O75907).
T1 construct: host or cells: HepG2 cell homogenate (supernatant after sonication and 2000×g centrifugation)
T1 sequence (O75907 1-488): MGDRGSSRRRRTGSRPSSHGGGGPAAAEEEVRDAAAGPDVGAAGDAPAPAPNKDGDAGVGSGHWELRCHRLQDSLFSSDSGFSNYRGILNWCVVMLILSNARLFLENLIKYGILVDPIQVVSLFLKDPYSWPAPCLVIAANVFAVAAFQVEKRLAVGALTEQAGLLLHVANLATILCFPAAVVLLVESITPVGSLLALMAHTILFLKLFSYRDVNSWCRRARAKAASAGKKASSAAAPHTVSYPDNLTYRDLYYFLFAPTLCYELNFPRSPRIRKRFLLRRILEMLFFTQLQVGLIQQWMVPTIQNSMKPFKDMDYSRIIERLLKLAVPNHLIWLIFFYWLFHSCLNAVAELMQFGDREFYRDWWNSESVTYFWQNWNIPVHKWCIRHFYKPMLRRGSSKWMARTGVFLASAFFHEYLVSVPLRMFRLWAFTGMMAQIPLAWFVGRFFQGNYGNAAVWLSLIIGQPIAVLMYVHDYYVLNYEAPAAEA
Description: Assay for inhibition of DGAT1 activity (IC50), in vitro enzymatic assay using homogenates of HepG2 cell line. Format: biochemical. To be noted: inhibitory activity against DGAT1; HepG2 protein (25 μg), 1,2-dioleoyl-sn-glycerol (30 μM), 14C oleoyl coenzyme A (10 μM), room temperature, 60 mins. Here is the method: In order to identify DGAT1 inhibitors, in vitro enzymatic assays were performed by using homogenates of HepG2 cell line (ATCC, USA, HB-8065). Briefly stated, HepG2 cells were inoculated in 10% FBS-supplemented medium at 1.0×10^7 cells/well, cultured at 37° C., and harvested 72 hrs later. The harvested cells were lysed by ultrasonic treatment, and centrifuged for at 4° C. (2000×g, 10 mins) to remove any uncracked cells and impurities. The supernatant thus formed was obtained, and stored at −70° C. after its protein contents were quantitatively analyzed.
DGAT1 activation was assayed by a modification of the method described by Coleman (Methods in Enzymology, 1992, 209, 98-102). The compound of the present invention ([…]) was incubated with HepG2 protein (25 μg), MgCl2 (150 mM) and 1,2-dioleoyl-sn-glycerol (30 μM) in a total assay volume of 200 μL in plastic tubes.
The reaction was started by adding ^14C oleoyl coenzyme A (10 μM final concentration) and incubated at room temperature for 60 mins. The reaction was ended when a mixed solution (300 μL) of 2-propanol and heptane (7:1) was added thereto. Radioactive triolein product was separated into the organic phase by adding heptane (200 μL) and 1.0 M carbonate buffer (200 μL, pH 9.5). DGAT1 activity was quantified by counting aliquots of the upper heptane layer by liquid […].
The IC50 is the concentration at which inhibition is half-maximal. Read a high IC50 as a need for much substance. The compound `CN1CCN(c2ccc(NC(=O)Nc3ccc(-c4ncnc5c(-c6ccc(CCC(=O)O)cc6)csc45)cc3)cc2)CC1` [Example 50, 3-(4-(4-(4-(3-(4-(4-methylpiperazin-1-yl)phenyl)ureido)phenyl)thieno[3,2-d]pyrimidin-7-yl)phenyl)propanoic acid] came in with an IC50 of under 20 nM.

On to `Cc1ccc(NC(=O)Nc2ccc(-c3ncnc4c(-c5ccc(CCC(=O)O)cc5)csc34)cc2)cc1` [Example 21, 3-(4-(4-(4-(3-p-tolylureido)phenyl)thieno[3,2-d]pyrimidin-7-yl)phenyl)propanoic acid], for which the IC50 is under 1 nM.

Turning to `O=C(O)CCc1ccc(-c2csc3c(-c4ccc(NC(=O)Nc5ccc(F)c(F)c5)cc4)ncnc23)cc1` [Example 14, 3-(4-(4-(4-(3-(3,4-difluorophenyl)ureido)phenyl)thieno[3,2-d]pyrimidin-7-yl)phenyl)propanoic acid], the IC50 is under 5 nM.

`CN(C)c1ccc(NC(=O)Nc2ccc(-c3ncnc4c(-c5ccc(CCC(=O)O)cc5)csc34)cc2)cc1` [Example 40, 3-(4-(4-(4-(3-(4-(dimethylamino)phenyl)ureido)phenyl)thieno[3,2-d]pyrimidin-7-yl)phenyl)propanoic acid] came in with an IC50 of under 1 nM.

With `O=C(O)CCc1ccc(-c2csc3c(-c4ccc(NC(=O)Nc5cccc(Cl)c5)cc4)ncnc23)cc1` [Example 7, 3-(4-(4-(4-(3-(3-chlorophenyl)ureido)phenyl)thieno[3,2-d]pyrimidin-7-yl)phenyl)propanoic acid], the IC50 was under 1 nM.

As for `NC(=O)CCc1ccc(-c2csc3c(-c4ccc(NC(=O)Nc5cccc(Cl)c5)cc4)ncnc23)cc1` [Example 28, 3-(4-(4-(4-(3-(3-chlorophenyl)ureido)phenyl)thieno[3,2-d]pyrimidin-7-yl)phenyl)propanamide], the IC50 is under 5 nM.

`COc1ccccc1NC(=O)Nc1ccc(-c2ncnc3c(-c4ccc(CCC(=O)O)cc4)csc23)cc1` [Example 20, 3-(4-(4-(4-(3-(2-methoxyphenyl)ureido)phenyl)thieno[3,2-d]pyrimidin-7-yl)phenyl)propanoic acid] yielded an IC50 of under 5 nM.

For `O=C(O)CCc1ccc(-c2csc3c(-c4ccc(NC(=O)Nc5ccc(N6CCCC6)cc5)cc4)ncnc23)cc1` [Example 52, 3-(4-(4-(4-(3-(4-(pyrrolidin-1-yl)phenyl)ureido)phenyl)thieno[3,2-d]pyrimidin-7-yl)phenyl)propanoic acid], the concentration for half-maximal inhibition (IC50) was under 1 nM.

`O=C(O)CCc1ccc(-c2csc3c(-c4ccc(NC(=O)Nc5cccc(F)c5)cc4)ncnc23)cc1` [Example 39, 3-(4-(4-(4-(3-(3-fluorophenyl)ureido)phenyl)thieno[3,2-d]pyrimidin-7-yl)phenyl)propanoic acid] showed an IC50 of under 1 nM.

For `O=C(O)CCc1ccc(-c2csc3c(-c4ccc(NC(=O)Nc5cccc(Cl)c5)cc4)ncnc23)cc1F` [Example 30, 3-(4-(4-(4-(3-(3-chlorophenyl)ureido)phenyl)thieno[3,2-d]pyrimidin-7-yl)-2-fluorophenyl)propanoic acid], the half-maximal inhibitory concentration (IC50) was under 1 nM.

`Cn1cc(-c2ccc(CCC(=O)O)cc2)c2ncnc(-c3ccc(NC(=O)Nc4ccccc4Cl)cc3)c21` [Example 57]: the IC50 is under 50 nM.

For `CC(C)(C(=O)O)c1ccc(-c2csc3c(-c4ccc(NC(=O)Nc5cccc(Cl)c5)cc4)ncnc23)cc1` [Example 59, 2-(4-(4-(4-(3-(3-chlorophenyl)ureido)phenyl)thieno[3,2-d]pyrimidin-7-yl)phenyl)-2-methylpropanoic acid], the half-inhibitory concentration (IC50) was under 1 nM.

Consider `COc1ccc(NC(=O)Nc2ccc(-c3ncnc4c(-c5ccc(CCC(=O)O)cc5)csc34)cc2)cc1` [Example 15, 3-(4-(4-(4-(3-(4-methoxyphenyl)ureido)phenyl)thieno[3,2-d]pyrimidin-7-yl)phenyl)propanoic acid], for which the IC50 was under 5 nM.

In turn, `CS(=O)(=O)c1ccc(-c2csc3c(-c4ccc(NC(=O)Nc5cccc(Cl)c5)cc4)ncnc23)cc1` [Example 31, 1-(3-chlorophenyl)-3-(4-(7-(4-(methylsulfon)phenyl)thieno[3,2-d]pyrimidin-4-yl)phenyl)urea] registered an IC50 of under 10 nM.

`O=C(O)Cc1ccc(-c2csc3c(-c4ccc(NC(=O)NC5CCCCC5)cc4)ncnc23)cc1` [Example 16, 2-(4-(4-(4-(3-cyclohexylureido)phenyl)thieno[3,2-d]pyrimidin-7-yl)phenyl)acetic acid] returned an IC50 of under 1 nM.

`O=C(O)Cc1ccc(-c2csc3c(-c4ccc(Nc5nc6ccccc6s5)cc4)ncnc23)cc1` [Example 61, 2-(4-(4-(4-(benzo[d]thiazol-2-ylamino)phenyl)thieno[3,2-d]pyrimidin-7-yl)phenyl)acetic acid] gave an IC50 of under 5 nM.

`O=C(O)Cc1ccc(-c2csc3c(-c4ccc(NC(=O)Nc5ccccc5)cc4)ncnc23)cc1` [Example 1, 2-(4-(4-(4-(3-phenylureido)phenyl)thieno[3,2-d]pyrimidin-7-yl)phenyl)acetic acid] gave an IC50 of under 5 nM.

`O=C(O)CCc1ccc(-c2csc3c(-c4ccc(NC(=O)Nc5ccc(N6CCOCC6)cc5)cc4)ncnc23)cc1` [Example 44, 3-(4-(4-(4-(3-(4-morpholinophenyl)ureido)phenyl)thieno[3,2-d]pyrimidin-7-yl)phenyl)propanoic acid] returned an IC50 of under 10 nM.

`O=C(O)Cc1ccc(-c2csc3c(-c4ccc(NC(=O)Nc5ccc(F)c(F)c5)cc4)ncnc23)cc1` [Example 4, 2-(4-(4-(4-(3-(3,4-difluorophenyl)ureido)phenyl)thieno[3,2-d]pyrimidin-7-yl)phenyl)acetic acid] came in with an IC50 of under 1 nM.

Consider `O=C(O)CCc1ccc(-c2csc3c(-c4ccc(NC(=O)Nc5ccc(-n6cnnc6)cc5)cc4)ncnc23)cc1` [Example 53, 3-(4-(4-(4-(3-(4-(4H-1,2,4-triazol-4-yl)phenyl)ureido)phenyl)thieno[3,2-d]pyrimidin-7-yl)phenyl)propanoic acid], for which the IC50 was under 50 nM.

As for `COc1ccc(Cl)c(NC(=O)Nc2ccc(-c3ncnc4c(-c5ccc(CCC(=O)O)cc5)csc34)cc2)c1` [Example 46, 3-(4-(4-(4-(3-(2-chloro-5-methoxyphenyl)ureido)phenyl)thieno[3,2-d]pyrimidin-7-yl)phenyl)propanoic acid], the IC50 is under 5 nM.

`O=C(O)CCc1ccc(-c2csc3c(-c4ccc(NC(=O)Nc5cc(Cl)ccn5)cc4)ncnc23)cc1` [Example 42, 3-(4-(4-(4-(3-(4-chloropyridin-2-yl)ureido)phenyl)thieno[3,2-d]pyrimidin-7-yl)phenyl)propanoic acid] yielded an IC50 of under 5 nM.

As to `O=C(O)Cc1ccc(-c2csc3c(-c4ccc(NC(=O)Nc5ccnc(Cl)c5)cc4)ncnc23)cc1` [Example 34, 2-(4-(4-(4-(3-(2-chloropyridin-4-yl)ureido)phenyl)thieno[3,2-d]pyrimidin-7-yl)phenyl)acetic acid], the IC50 was under 10 nM.

On to `O=C(O)CCc1ccc(-c2csc3c(-c4ccc(NC(=O)Nc5ccc(-c6nn[nH]n6)cc5)cc4)ncnc23)cc1` [Example 49, 3-(4-(4-(4-(3-(4-(2H-tetrazol-5-yl)phenyl)ureido)phenyl)thieno[3,2-d]pyrimidin-7-yl)phenyl)propanoic acid], for which the IC50 is under 1 nM.

`COc1cc(NC(=O)Nc2ccc(-c3ncnc4c(-c5ccc(CCC(=O)O)cc5)csc34)cc2)cc(OC)c1OC` [Example 24, 3-(4-(4-(4-(3-(3,4,5-trimethoxyphenyl)ureido)phenyl)thieno[3,2-d]pyrimidin-7-yl)phenyl)propanoic acid] came in with an IC50 of under 5 nM.

Regarding `CN1CCC(NC(=O)Nc2ccc(-c3ncnc4c(-c5ccc(CCC(=O)O)cc5)csc34)cc2)CC1` [Example 51, 3-(4-(4-(4-(3-(1-methylpiperidin-4-yl)ureido)phenyl)thieno[3,2-d]pyrimidin-7-yl)phenyl)propanoic acid], the IC50 is under 1 nM.

The compound `CN(C)c1ccc(NC(=O)Nc2ccc(-c3ncnc4c(-c5ccc(CC(=O)O)cc5)csc34)cc2)cc1` [Example 35, 2-(4-(4-(4-(3-(4-(dimethylamino)phenyl)ureido)phenyl)thieno[3,2-d]pyrimidin-7-yl)phenyl)acetic acid] displayed an IC50 of under 10 nM.

Consider `O=C(O)Cc1ccc(-c2csc3c(-c4ccc(NC(=O)Nc5cccc(Cl)c5)cc4)ncnc23)cc1` [Example 2, 2-(4-(4-(4-(3-(3-chlorophenyl)ureido)phenyl)thieno[3,2-d]pyrimidin-7-yl)phenyl)acetic acid], for which the IC50 is under 1 nM.
